Test results reported in patent US20140332384A1, “BIOMARKERS RELATED WITH A SUPRA-N[…] STATE OF SELENIUM AND DIAGNOSIS METHOD IN WHICH SAID […] IDENTIFIED” (UNIVERSIDAD DE SANTIAGO DE CHILE, priority 2011, published 2014).
“And” between values parts separate entries of the source, which are not always exact repeats. Equal entries are not always repeated.

Key:
[1] = test system: blood plasma proteins of basic isoelectric point (bands R-2 to R-15); experiment: Protein pattern of blood plasma proteins of basic isoelectric point (SDS-PAGE, densitometry) in rats fed supplemented diets; type: in vivo, Wistar rats
Experimental: The plasma was separated from the solids.
For the preparation of the pattern used, individual plasma samples were analyzed by SDS electrophoresis in polyacrylamide gel according to standard protocols. Prior to electrophoretic analysis, plasma samples were fractioned by “batch” adsorption using an ion exchange resin at pH 7.5. The adsorbed fraction was recovered and analyzed by SDS polyacrylamide gel.
A calibration curve was prepared loading five solutions of different concentrations (0, 0.4, 0.6, 0.8, and 1 mg/ml) [XAOG1]·[A2] of bovine serum albumin (as protein standard) in a polyacrylamide gel, and performing SDS-PAGE analysis under the same conditions and with the same protocol as used to analyse the plasma samples. In each lane a single major band was detected, and between the each lane different band intensity was observed due to the different concentration of the protein loaded (FIGS. 2-5). The optical density of each band was determined, as the protein concentration was known in each solution loaded in the different lanes, a linear equation was drawn which correlates the concentration with the intensity of the bands.
The concentration of protein was quantified in each band via optical densitometry and subsequent interpolation in the calibration curve. The concentration average and standard deviation for each band was calculated, considering the 8 samples of each group (controls and experimental). A comparison was made using the Student statistical t-test with a confidence interval 95% to detect significant differences in each band between the experimental and control groups.
The reference pattern for protein corresponds to the set of plasma proteins of basic isoelectric point obtained and separated by the following methodology.
Stage A: Chromatographic Fractionation of Plasma Proteins Basic Isoelectric Point.
1. Resuspend the cationic exchange resin, carefully turning the package containing the resin. When total homogenization is achieved, a certain volume of suspension is taken, between 50 and 500 μL, preferably between 50 and 200 μL, more preferably 100 μL.
2. Mix in a microcentrifuge tube around 50 to 500 μL, preferably between 50 and 200 μL, more preferably 100 μL of plasma with a 1:9 proportional amount of buffer pH 7.5, until a ionic strength equal to 0.1M, is attained, this is if you take 100 μL of plasma, 900 μL buffer must be added to achieve a 1:10 dilution, and obtain a plasma protein solution with an ionic strength equivalent to 0.09 to 0.1M of NaCl.
3. To prepare the cationic exchange resin, it is necessary to decant the resin from the original suspension volume, discarding the supernatant and washing the resin by adding an amount equivalent to the discarded supernatant buffer pH 7.5 plus 0.1M NaCl, repeating the procedure 3 times.
The protein sample obtained from stage 2 is added and mixed gently homogenizing it for 30 minutes and the resin is separated from the supernatant, the supernatant is discarded and the resin is washed with the same volume of pH 7.5 buffer plus 0.1M NaCl, three times. The adsorbed proteins are eluted by adding a suitable volume, preferably between 40 and 80 μL, more preferably 50 µL of pH 7.5 buffer over 1M NaCl, homogenized, the resin is separated from the supernatant, and finally supernatant is recuperated, which corresponds to the fraction of plasma proteins with a basic isoelectric point.
Stage B: Electrophoretic separation of plasma proteins of a basic isoelectric point.
A 12% polyacrylamide gel is prepared, according to standard protocols. A 20 μl of the sample obtained in item 3 and 5 μL of loading buffer (standard composition for SDS analysis) is subject to denaturation by heat. The denatured mixture is loaded into a lane and the electrophoretic run is performed, for a total of 160 Vh. The electrophoresis system is disassembled and the gel is recovered. […]

[2] = Growth of rats based on their body weight; details: 10 weeks; for Final body weight: in g (unit assumed)
Experimental: As illustrated in the various embodiments and examples provided herein, the protein pattern was obtained using blood plasma from Wistar rats, bred in three groups of 8 rats, 21 days of age (4 females and 4 males) each. […] The animals had free access to deionized water and received the respective diet ad libitum. […]
The animals were kept in stainless steel cages at a controlled temperature equal to 20° C., using 12 hours day/night cycles. After the experimental period (10 weeks), blood samples were collected from each animal by cardiac punction, using standard protocols in heparin tubes. The tubes were inverted 10 times, and immediately placed in an ice bath. The tubes were centrifuged at 1300 RCF at 4° C. during 10 minutes. The plasma was separated from the solids. The supernatant was transferred to a fresh centrifuge tube and was centrifuged at 2400 RCF at 4° C. for 15 minutes. Finally, plasma samples were stored at −80° C. until they were analysed.
The growth of rats for each group was controlled.

[3] = test system: blood plasma proteins of basic isoelectric point (bands R-2 to R-15); experiment: Protein pattern of blood plasma of an individual treated with dietary supplement seleno methylselenocysteine (Example 2); type: in vivo
Source text: The samples must pass through the stages A and B as described in the preparation of the pattern.
Step C: Comparing the protein pattern of the reference.
It compares the SDS-PAGE gel of the sample collected and treated with the protein pattern characteristic of a supranutritional intake of a trace element, in this case, the organic form of selenium as provided in seleno-methyl-selenocysteine, and evaluating the presence of the same bands and its relative abundance in each of the bands.
A statistical analysis (t-Student with an interval of 95%) is performed to detect significant differences between the relative abundance of the corresponding protein bands between the sample and pattern.
A sample of plasma from an individual who has undergone treatment with a nutritional dietary supplement seleno methylselenocysteine. This plasma sample was subject to the methodology described above, and the following were the results.
For comparison, Student's t-test with a confidence interval of 95% confidence was used. […] The interpretation of the results, based on the methodology would be as follows.

[4] = rat blood plasma, basic isoelectric point fraction, diet with 1.9 μg SMSeC per gram, 10 weeks, average ± standard deviation, [UA] in Tables 4, 5
[5] = rats fed 1.9 μg seleno-methyl-selenocysteine per g of diet, Student t-test, confidence interval 95%
[6] = SMSeC (1.9 μg) diet, females, average
[7] = SMSeC (1.9 μg) diet, females, individual rats
[8] = SMSeC (1.9 μg) diet, group average
[9] = SMSeC (1.9 μg) diet, males, average
[10] = SMSeC (1.9 μg) diet, males, individual rats
[11] = Sodium Selenate (1.5 μg) diet, females, average
[12] = Sodium Selenate (1.5 μg) diet, females, individual rats
[13] = Sodium Selenate (1.5 μg) diet, group average
[14] = Sodium Selenate (1.5 μg) diet, males, average
[15] = Sodium Selenate (1.5 μg) diet, males, individual rats
[16] = Sodium Selenate (1.9 μg) diet, females, average
[17] = Sodium Selenate (1.9 μg) diet, females, individual rats
[18] = Sodium Selenate (1.9 μg) diet, group average
[19] = Sodium Selenate (1.9 μg) diet, males, average
[20] = Sodium Selenate (1.9 μg) diet, males, individual rats

## C[Se]C[C@H](N)C(=O)O [SMSeC, seleno-methyl-selenocysteine]
[1]; [4]
  Relative abundance of band R-2 (H inhibitory factor complement) of the pattern: 28498 ± 3911.5 arbitrary units
  Relative abundance of band R-3 (H inhibitory factor complement) of the pattern: 20594.0 ± 4569.2 arbitrary units
  Relative abundance of band R-4 (CRA f isophorm plasminogen) of the pattern: 21804.3 ± 4211.0 arbitrary units
  Relative abundance of band R-5 (LOC366747 Protein) of the pattern: 24582.7 ± 3620.9 arbitrary units
  Relative abundance of band R-6 (4a component complement) of the pattern: 29751.3 ± 2974.0 arbitrary units
  Relative abundance of band R-7 (Albumina) of the pattern: 37380.8 ± 2955.7 arbitrary units
  Relative abundance of band R-8 (Da 1-24) of the pattern: 27224.3 ± 6466.9 arbitrary units
  Relative abundance of band R-9 (2C chainCregion Ig Gamma) of the pattern: 40411.3 ± 5952.4 arbitrary units
  Relative abundance of band R-10 (Precursor β-2-glicoprotein 1) of the pattern: 14366.6 ± 3087.2 arbitrary units
  Relative abundance of band R-11 (2A Region C Ig Gamma chain) of the pattern: 14644.4 ± 1750.0 arbitrary units and 14064.4 ± 1750.0 arbitrary units
  Relative abundance of band R-12 (4a component complement) of the pattern: 51973.0 ± 4308.2 arbitrary units
  Relative abundance of band R-13 (Heavy chain H4 inter α inhibitor) of the pattern: 13414.1 ± 5568.9 arbitrary units
  Relative abundance of band R-14 (Ig Kappa precursor) of the pattern: 40436.1 ± 2906.9 arbitrary units
  Relative abundance of band R-15 (H apolipoprotein) of the pattern: 11309.5 ± 6939.5 arbitrary units
[1]; [5]
  Concentration of protein in band R-10 compared with basal diet plus 0.15 μg sodium selenate per gram of diet: significantly higher
  Concentration of protein in band R-11 compared with basal diet plus 0.15 μg sodium selenate per gram of diet: significantly higher
  Concentration of protein in band R-12 compared with basal diet plus 0.15 μg sodium selenate per gram of diet: significantly higher
  Concentration of protein in band R-13 compared with basal diet plus 0.15 μg sodium selenate per gram of diet: significantly higher
  Concentration of protein in band R-15 compared with basal diet plus 0.15 μg sodium selenate per gram of diet: significantly higher
[1]; rats fed 1.9 μg seleno-methyl-selenocysteine per gram of diet, Student t-test, confidence interval 95%
  Concentration of protein in band R-3 compared with both control groups: significantly higher
[2]; [6]
  Delta body weight: 168.3
  Final body weight: 216.7
[2]; [7]
  Delta body weight: 161.1 and 160.2 and 172.4 and 179.3
  Final body weight: 208.6 and 210.3 and 222.2 and 225.5
[2]; [8]
  Delta body weight: 211.5
  Final body weight: 260.4
[2]; [9]
  Delta body weight: 254.7
  Final body weight: 304
[2]; [10]
  Delta body weight: 245.1 and 256.8 and 275.8 and 241.0
  Final body weight: 296.5 and 308.7 and 322.6 and 287.9
[3]
  Relative abundance [UA] of the individual, band R-2: 29498.0 ± 3911.5 UA
  Relative abundance [UA] of the individual, band R-3: 22594.0 ± 4569.2 UA
  Relative abundance [UA] of the individual, band R-4: 21994.3 ± 4211.0 UA
  Relative abundance [UA] of the individual, band R-5: 25682.7 ± 3620.9 UA
  Relative abundance [UA] of the individual, band R-6: 30751.3 ± 2974.0 UA
  Relative abundance [UA] of the individual, band R-7: 37560.8 ± 2955.7 UA
  Relative abundance [UA] of the individual, band R-8: 28124.3 ± 6466.9 UA
  Relative abundance [UA] of the individual, band R-9: 41211.3 ± 5952.4 UA
  Relative abundance [UA] of the individual, band R-10: 14666.6 ± 3087.2 UA
  Relative abundance [UA] of the individual, band R-11: 13964.4 ± 1750.0 UA
  Relative abundance [UA] of the individual, band R-12: 52073.0 ± 4308.2 UA
  Relative abundance [UA] of the individual, band R-13: 15414.1 ± 5568.9 UA
  Relative abundance [UA] of the individual, band R-14: 41436.1 ± 2906.9 UA
  Relative abundance [UA] of the individual, band R-15: 12009.5 ± 6939.5 UA

## O=[Se](=O)(O)O [Sodium Selenate, sodium selenate]
[2]; [11]
  Delta body weight: 151.1
  Final body weight: 199.5
[2]; [12]
  Delta body weight: 141.6 and 135.5 and 139.3 and 187.8
  Final body weight: 189.8 and 184.2 and 188.3 and 235.7
[2]; [13]
  Delta body weight: 207.8
  Final body weight: 256.7
[2]; [14]
  Delta body weight: 264.6
  Final body weight: 313.8
[2]; [15]
  Delta body weight: 266.6 and 275.8 and 271.2 and 244.9
  Final body weight: 316.8 and 326.3 and 318.5 and 293.5
[2]; [16]
  Delta body weight: 161.2
  Final body weight: 209.7
[2]; [17]
  Delta body weight: 180.4 and 161.3 and 145.1 and 158.1
  Final body weight: 228.6 and 210 and 194.1 and 206
[2]; [18]
  Delta body weight: 218.0
  Final body weight: 266.9
[2]; [19]
  Delta body weight: 274.8
  Final body weight: 324
[2]; [20]
  Delta body weight: 293.1 and 278.3 and 291.9 and 235.9
  Final body weight: 343.3 and 328.8 and 339.2 and 284.5
